What was measured:
Test in all cases: relative viability vs DMSO control (72 h) (fraction); higher = more viable cells
[1] = tested on: RD-ES
Summary of the method: (§1)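 Sarcoma cell lines in 384-well plates, seeded to reach 80–90% confluence, were given compound after 24 h and kept 72 h at 37 °C, 5% CO2, with 0.1% DMSO vehicle and a 5 µM positive control. Relative viability came from ATPLite as percent growth, averaged over up to triplicate wells. On the rescaled values, 1 equals full and 0 equals none.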

[2] = tested on: KHOS-240S
Summary of the method: as §1

[3] = tested on: SW982
Summary of the method: as §1

[4] = tested on: HT1080
Summary of the method: as §1

[5] = tested on: SW1353
Summary of the method: as §1

COc1cc2ncnc(Nc3ccc(F)c(Cl)c3)c2cc1OCCCN1CCOCC1 [Gefitinib]
relative viability
Conditions	[1]	[2]	[3]	[4]	[5]
0.00017 µM	0.944	1.01	0.997	1.05	1.03
0.00051 µM	0.967	1.05	1.01	1.1	1.073
0.00152 µM	0.954	1.01	1.01	1.04	0.999
0.00457 µM	0.965	1.05	1	1.07	1.02
0.01372 µM	0.97	1.03	1	1.06	1.02
0.04115 µM	0.978	1.04	1.012	1.03	0.979
0.1235 µM	0.973	1	0.998	1.047	0.93
0.3704 µM	0.987	1.03	0.989	1.07	0.903
1.111 µM	0.962	1.01	0.957	1.05	0.928
3.333 µM	0.844	0.921	0.675	1.04	0.892
10 µM	0.464	0.318	0.268	0.483	0.168

CCOc1cc2ncc(C#N)c(Nc3ccc(OCc4ccccn4)c(Cl)c3)c2cc1NC(=O)/C=C/CN(C)C [Neratinib]
relative viability
Conditions	[1]	[2]	[3]	[4]	[5]
0.00017 µM	1.03	1.03	1.06	1.05	0.971
0.00051 µM	1.01	1.06	1.07	1.05	0.955
0.00152 µM	0.999	1.06	1.05	1.028	0.923
0.00457 µM	0.996	1.06	1.04	1.04	0.934
0.01372 µM	0.997	1.05	1.05	1.047	0.899
0.04115 µM	0.977	1.03	1	1.07	0.807
0.1235 µM	0.938	1	0.87	1.08	0.71
0.3704 µM	0.737	0.896	0.483	0.992	0.568
1.111 µM	0.498	0.741	0.379	0.726	0.525
3.333 µM	0.431	0.618	0.215	0.603	0.426
10 µM	0.345	0.338	0.0234	0.00637	0.0062

Cc1cc(F)c(C(=O)Nc2cccc(-c3nncn3C(C)C)n2)cc1-n1cnc(C2CC2)c1 [Selonsertib]
relative viability
Conditions	[1]	[2]	[3]	[4]	[5]
0.00017 µM	0.972	1.05	1.05	1.01	0.962
0.00051 µM	0.988	1.07	1.05	1.04	0.977
0.00152 µM	0.955	1.04	1.07	1.04	0.951
0.00457 µM	0.983	1.06	1.05	1.04	0.95
0.01372 µM	0.999	1.07	1.08	1.05	0.934
0.04115 µM	1.02	1.06	1.09	1.04	0.953
0.1235 µM	0.983	1.07	1.07	1.04	0.968
0.3704 µM	1.01	1.06	1.09	1.03	0.994
1.111 µM	0.994	1.03	1.09	1.08	0.986
3.333 µM	0.975	0.983	1.1	1.09	0.977
10 µM	0.537	0.736	1.07	1.081	0.964

CCN1CCN(c2ccc(Nc3cc(N(C)C(=O)Nc4c(Cl)c(OC)cc(OC)c4Cl)ncn3)cc2)CC1 [Infigratinib]
relative viability
Conditions	[1]	[2]	[3]	[4]	[5]
85 pM	0.972	1.058	1.01	1.03	1.06
0.000254 µM	0.95	1.11	1.07	1.07	1.069
0.00076 µM	0.965	1.08	1.02	1.072	1.04
0.00229 µM	0.998	1.06	1.05	1.04	1.01
0.00686 µM	0.981	1.06	1.05	1.053	0.98
0.02058 µM	0.959	0.986	1.05	1.067	0.914
0.0617 µM	0.957	0.926	1.07	1.04	0.861
0.1852 µM	0.959	0.932	1.061	1.06	0.861
0.5556 µM	0.928	0.907	0.98	1.087	0.861
1.6667 µM	0.802	0.874	0.78	1.11	0.8437
5 µM	0.783	0.835	0.732	1.01	0.741

C#Cc1cccc(Nc2ncnc3cc4c(cc23)OCCOCCOCCO4)c1 [Icotinib]
relative viability
Conditions	[1]	[2]	[3]	[4]	[5]
0.00017 µM	0.983	1.07	1.01	1.08	1.06
0.00051 µM	0.998	1.1	1.03	1.11	1.04
0.00152 µM	0.989	1.1	1.04	1.09	1.03
0.00457 µM	1.01	1.1	1.03	1.1	1.07
0.01372 µM	0.991	1.1	1.049	1.11	1.045
0.04115 µM	0.982	1.09	1.06	1.08	1.01
0.1235 µM	0.976	1.1	1.06	1.1	1.01
0.3704 µM	0.991	1.09	1.05	1.11	0.976
1.111 µM	0.973	1.09	0.999	1.069	0.952
3.333 µM	0.977	1.04	0.9946	1.08	0.914
10 µM	0.959	1.03	0.977	1.06	0.847
